Here are results for six compounds from ChEMBL document CHEMBL4402556, “Mycobacterium tuberculosis Decaprenylphosphoryl-β-d-ribose Oxidase Inhibitors: Expeditious Reconstruction of Suboptimal Hits into a Series with Potent in Vivo Activity” (J Med Chem, 2020).

The nature of series [1]: Kinetic aqueous solubility of the compound in phosphate buffer saline at pH 7.4 after 1 hr by CLND method. Format: physicochemical. Conditions: phosphate buffered saline, read-out: Kinetic_solubility.
Series [2] deals with Mycobacterium tuberculosis. Nature of the series: Antitubercular activity against wild type Mycobacterium tuberculosis H37Rv ATCC 25618 assessed as bacterial growth inhibition measured after 6 days by resazurin assay. In kind it is functional. Conditions: H37Rv ATCC 25618, 144 h. On the technique in general: Alamar Blue is a resazurin reagent that responds to reducing activity.

Another series has as its system HepG2. The series is described as follows: Cytotoxicity against human HepG2 cells assessed as reduction in cell viability measured after 48 hrs by CellTiter-Glo assay. In kind it is cell-based. Conditions: HepG2, 48 h. For orientation: ATP-based viability assays read luminescence as a measure of living cells.
Series [3] concerns Mycobacterium tuberculosis. Nature of the series: Antitubercular activity against Mycobacterium tuberculosis H37Rv infected in po dosed C57BL/6 mouse model of acute infection assessed as effect on mycobacterial burden in lung pretreated with CYP inhibitor ABT 2 hrs prior followed by compound administration for 8 consecutive days starting from day 1 post-infection and measured after 24 hrs post-last dose. In kind it is functional.

In series [4] the test system is Mycobacterium tuberculosis. The series is described as follows: Antitubercular activity against wild type Mycobacterium tuberculosis H37Rv ATCC 25618 transfected with pATB45luc plasmid expressing luciferase infected in human THP1 cells assessed as reduction in bacterial growth after 4 days by BrightGlo luciferase assay. The note with it: H37Rv ATCC 25618, 96 h. Format: functional.

Series [5] can be described thus: Inhibition of Mycobacterium tuberculosis DprE1 expressed in Escherichia coli BL21 (DE3) using farnesylphosphoryl-beta-D-ribose as substrate.
Series [6] relates to Mycobacterium tuberculosis. Nature of the series: Antibacterial activity against Mycobacterium tuberculosis transfected with pMV261 vector expressing DprE1 assessed as bacterial growth inhibition. In kind it is functional.
The test system of series [7] is Mycobacterium tuberculosis. Nature of the series: Antitubercular activity against Mycobacterium tuberculosis H37Rv infected in po dosed C57BL/6 mouse model of acute infection assessed as reduction in mycobacterial burden in lung administration for 8 consecutive days starting from day 1 post-infection and measured after 24 hrs post-last dose. Format: functional.
The subject of the next series is Escherichia coli. The series is described as follows: Antibacterial activity against Escherichia coli assessed as bacterial growth inhibition. In kind it is functional.
The subject of another series is Staphylococcus aureus. The series is described as follows: Antibacterial activity against Staphylococcus aureus assessed as bacterial growth inhibition. Format: functional.
The nature of series [8]: Half life in CD-1 mouse at 1 mg/kg, iv administered as single dose measured up to 24 hrs by LC-MS/MS analysis. Format: ADME, organism-based. Conditions: in vivo.
The nature of series [9]: Clearance in CD-1 mouse at 1 mg/kg, iv administered as single dose measured up to 24 hrs by LC-MS/MS analysis. Format: ADME, organism-based. The note with it: in vivo.
The nature of series [10]: Volume of distribution at steady state in CD-1 mouse at 1 mg/kg, iv administered as single dose measured up to 24 hrs by LC-MS/MS analysis. Conditions: in vivo, read-out: Vdss. In kind it is ADME, organism-based.
Series [11] can be described thus: Solubility of the compound in FaSSIF. In kind it is physicochemical.
A short description of series [12]: Oral bioavailability in CD-1 mouse at 5 mg/kg administered as single dose measured up to 24 hrs by LC-MS/MS analysis. In kind it is ADME, organism-based. The note with it: in vivo.
Series [13] deals with Mycobacterium tuberculosis. The series is described as follows: Antitubercular activity against Mycobacterium tuberculosis H37Rv infected in C57BL/6 mouse model of acute infection assessed as reduction in mycobacterial burden in lung at 100 mg/kg, po treated for 8 consecutive days starting from day 1 post-infection and measured after 24 hrs post-last dose (reference value: 5.8 log10cfu). In kind it is functional.

≈ marks a conversion by molar mass, not a printed value.

`COc1ncnc(Cn2cc(C(=O)NCCF)c3ncccc32)c1C`: in [1], the solubility kinetic at 1 h worked out at 26 µM (≈ 8.93 µg/mL). Besides, the MIC90 (in general, the lowest concentration that inhibits either 90% of growth or 90% of the strains tested, depending on the study) in [2] is 4 µM (≈ 1.37 µg/mL); in [4] it was 0.62 µM (≈ 0.213 µg/mL); in [6] it was > 125 µM. The IC50 (usually the concentration needed to halve the response being measured) in the series on HepG2 is > 100 µM. Besides, the ED99 in series [3] worked out at 11 mg/kg; in [7], 164 mg/kg. The pIC50 (in general, the IC50 on a negative log10 scale, so that one unit is a factor of ten) in series [5] amounted to 7.4.

Turning to `O=C(C1CCN(c2cc(N3CCOCC3)ncn2)CC1)N1CCC(Cc2ccccc2)CC1`, the solubility kinetic at 1 h in series [1] was 280 µM (≈ 126 µg/mL). For the same compound, the MIC90 in series [2] was 0.6 µM (≈ 0.27 µg/mL); in series [4], 0.07 µM (≈ 0.0315 µg/mL); in [6], > 16 µM. Further, the MIC with Escherichia coli and with Staphylococcus aureus was > 128 µg/mL in each case. Besides, the pIC50 in [5] is given as 7.6.

Take `O=C(C1CCN(c2cc(N3CCOCC3)ncn2)CC1)N1CCC(Cc2ccc(F)cc2)CC1`: the half-life – broadly, the time in which the quantity being followed falls by half – in series [8] was 27 min. For the same compound, the clearance (usually the rate of elimination divided by the concentration) in [9] amounted to 38.9 mL/min/kg. Also, in [1], the solubility kinetic at 1 h was found to be 160 µM (≈ 74.8 µg/mL). Also, the MIC90 in series [2] was 0.6 µM (≈ 0.281 µg/mL); in series [4] it was 0.21 µM (≈ 0.0982 µg/mL); in [6] it was 15 µM (≈ 7.01 µg/mL). Besides, in series [10], the Vd turned out to be 1.3 L/kg. The IC50 with HepG2 was 50.1 µM. Also, in series [11], the solubility – broadly, the dissolved amount per volume that the medium holds – was found to be 40 µM (≈ 18.7 µg/mL). The bioavailability (in general, dose-corrected exposure relative to a reference, in per cent) in series [12] was 100%. In [5], the pIC50 was found to be 7.6. The ED99 in series [7] amounted to 30 mg/kg.

Regarding `O=C(C1CCN(c2cc(N3CCCCC3)ncn2)CC1)N1CCCCC1`, the solubility kinetic at 1 h in series [1] was > 405 µM. In series [2], the MIC90 came to 35.6 µM (≈ 12.7 µg/mL). The pIC50 in [5] is recorded as 5.8.

For the compound `O=C(C1CCN(c2cc(N3CCOCC3)ncn2)CC1)N1CCC(Oc2ccc(F)cc2)CC1`, in series [8], the half-life is 60 min. Besides, in series [9], the clearance worked out at 23.5 mL/min/kg. Moreover, in series [1], the solubility kinetic at 1 h was ≥ 364 µM. For the same compound, the MIC90 in [2] worked out at 1.7 µM (≈ 0.798 µg/mL); in series [4], 0.62 µM (≈ 0.291 µg/mL); in series [6], 62 µM (≈ 29.1 µg/mL). In addition, the Vd in series [10] is 1.7 L/kg. Also, in the series with HepG2, the IC50 was 31.6 µM. The compound further registered a solubility in [11] of 74 µM (≈ 34.7 µg/mL). In addition, in [12], the bioavailability was 78.7%. The pIC50 in series [5] stood at 7.3. Besides, in series [7], the ED99 was 29 mg/kg.

`COc1c(N2C[C@@H]3CCCN[C@@H]3C2)c(F)cc2c(=O)c(C(=O)O)cn(C3CC3)c12` [MOXIFLOXACIN]: the Activity in [13] turned out to be 2.7 log10CFU.
